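GI50: concentration for 50% inhibition of growth. At the TGI there is no net growth.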
Legend:
Assay in all cases: inhibition of tumour cell growth, NCI panel, 384-well format
OVCAR-8 ovarian = tested on: OVCAR-8 ovarian
SF-295 CNS = tested on: SF-295 CNS
SK-MEL-2 melanoma = tested on: SK-MEL-2 melanoma
SN12C renal = tested on: SN12C renal
T-47D breast = tested on: T-47D breast
SK-MEL-28 melanoma = tested on: SK-MEL-28 melanoma
OVCAR-5 ovarian = tested on: OVCAR-5 ovarian
NCI-H522 lung = tested on: NCI-H522 lung
DU-145 prostate = tested on: DU-145 prostate
SNB-19 CNS = tested on: SNB-19 CNS
SF-539 CNS = tested on: SF-539 CNS
SF-268 CNS = tested on: SF-268 CNS
HOP-92 NSCLC = tested on: HOP-92 NSCLC
NCI-H226 lung = tested on: NCI-H226 lung
UACC-62 melanoma = tested on: UACC-62 melanoma
NCI-H322M lung = tested on: NCI-H322M lung
IGROV1 ovarian = tested on: IGROV1 ovarian
ACHN renal = tested on: ACHN renal
PC-3 prostate = tested on: PC-3 prostate
TK-10 renal = tested on: TK-10 renal
K-562 leukemia = tested on: K-562 leukemia
MCF7 breast = tested on: MCF7 breast
UACC-257 melanoma = tested on: UACC-257 melanoma
OVCAR-4 ovarian = tested on: OVCAR-4 ovarian
EKVX NSCLC = tested on: EKVX NSCLC
OVCAR-3 ovarian = tested on: OVCAR-3 ovarian
COLO 205 colon = tested on: COLO 205 colon
M14 melanoma = tested on: M14 melanoma
RXF 393 renal = tested on: RXF 393 renal
MDA-MB-435 melanoma = tested on: MDA-MB-435 melanoma
MDA-MB-231 breast = tested on: MDA-MB-231 breast
BT-549 breast = tested on: BT-549 breast
MOLT-4 leukemia = tested on: MOLT-4 leukemia
SR leukemia = tested on: SR leukemia
U251 glioblastoma = tested on: U251 glioblastoma
HOP-62 NSCLC = tested on: HOP-62 NSCLC
SW-620 colon = tested on: SW-620 colon
UO-31 renal = tested on: UO-31 renal
MDA-MB-468 breast = tested on: MDA-MB-468 breast
A498 renal = tested on: A498 renal
NCI-H460 NSCLC = tested on: NCI-H460 NSCLC
HT29 colon = tested on: HT29 colon
786-0 renal = tested on: 786-0 renal
SK-OV-3 ovarian = tested on: SK-OV-3 ovarian
HL-60(TB) leukemia = tested on: HL-60(TB) leukemia
SK-MEL-5 melanoma = tested on: SK-MEL-5 melanoma
SNB-75 CNS = tested on: SNB-75 CNS
CAKI-1 renal = tested on: CAKI-1 renal
A549 NSCLC = tested on: A549 NSCLC
HCT-116 colon = tested on: HCT-116 colon
MALME-3M melanoma = tested on: MALME-3M melanoma
HCT-15 colon = tested on: HCT-15 colon
KM12 colon = tested on: KM12 colon
NCI-H23 lung = tested on: NCI-H23 lung

In the case of CC[C@@]1(O)C(=O)OCc2c1cc1n(c2=O)Cc2c-1nc1cc(F)c(C)c3c1c2[C@@H](N)CC3, the GI50 (OVCAR-8 ovarian) is reported as under 0.01 µM, the TGI (OVCAR-8 ovarian) is reported as 0.0398 µM and the GI50 (SF-295 CNS) is reported as under 0.01 µM. The TGI (SF-295 CNS) was under 0.01 µM, the GI50 (SK-MEL-2 melanoma) was under 0.01 µM and the TGI (SK-MEL-2 melanoma) was 0.0292 µM. It also gave a GI50 (SN12C renal) of under 0.01 µM, a TGI (SN12C renal) of under 0.01 µM and a GI50 (T-47D breast) of under 0.01 µM. It also gave a TGI (T-47D breast) of under 0.01 µM, a GI50 (SK-MEL-28 melanoma) of under 0.01 µM and a TGI (SK-MEL-28 melanoma) of 0.133 µM. The GI50 (OVCAR-5 ovarian) was under 0.01 µM, the TGI (OVCAR-5 ovarian) was 0.043 µM and the GI50 (NCI-H522 lung) was under 0.01 µM. For the same compound, the TGI (NCI-H522 lung) was under 0.01 µM, the GI50 (DU-145 prostate) was under 0.01 µM and the TGI (DU-145 prostate) was under 0.01 µM. For the same compound, the GI50 (SNB-19 CNS) was under 0.01 µM, the TGI (SNB-19 CNS) was 0.0259 µM and the GI50 (SF-539 CNS) was under 0.01 µM. The TGI (SF-539 CNS) was under 0.01 µM, the GI50 (SF-268 CNS) was under 0.01 µM and the TGI (SF-268 CNS) was under 0.01 µM. The GI50 (HOP-92 NSCLC) was under 0.01 µM, the TGI (HOP-92 NSCLC) was 0.011 µM and the GI50 (NCI-H226 lung) was under 0.01 µM. It also gave a TGI (NCI-H226 lung) of under 0.01 µM, a GI50 (UACC-62 melanoma) of under 0.01 µM and a TGI (UACC-62 melanoma) of under 0.01 µM. It also gave a GI50 (NCI-H322M lung) of under 0.01 µM, a TGI (NCI-H322M lung) of 0.0174 µM and a GI50 (IGROV1 ovarian) of under 0.01 µM. It also gave a TGI (IGROV1 ovarian) of 0.103 µM, a GI50 (ACHN renal) of under 0.01 µM and a TGI (ACHN renal) of under 0.01 µM. For the same compound, the GI50 (PC-3 prostate) was under 0.01 µM, the TGI (PC-3 prostate) was 1.05 µM and the GI50 (TK-10 renal) was under 0.01 µM. For the same compound, the TGI (TK-10 renal) was 0.608 µM, the GI50 (K-562 leukemia) was under 0.01 µM and the TGI (K-562 leukemia) was 0.132 µM. For the same compound, the GI50 (MCF7 breast) was under 0.01 µM, the TGI (MCF7 breast) was under 0.01 µM and the GI50 (UACC-257 melanoma) was under 0.01 µM. For the same compound, the TGI (UACC-257 melanoma) was under 0.01 µM, the GI50 (OVCAR-4 ovarian) was 0.019 µM and the TGI (OVCAR-4 ovarian) was 0.308 µM. For the same compound, the GI50 (EKVX NSCLC) was under 0.01 µM, the TGI (EKVX NSCLC) was 0.243 µM and the GI50 (OVCAR-3 ovarian) was under 0.01 µM. The TGI (OVCAR-3 ovarian) was 0.0317 µM, the GI50 (COLO 205 colon) was under 0.01 µM and the TGI (COLO 205 colon) was 0.159 µM. For the same compound, the GI50 (M14 melanoma) was under 0.01 µM, the TGI (M14 melanoma) was 0.0187 µM and the GI50 (RXF 393 renal) was under 0.01 µM. The TGI (RXF 393 renal) was under 0.01 µM, the GI50 (MDA-MB-435 melanoma) was under 0.01 µM and the TGI (MDA-MB-435 melanoma) was 0.177 µM. The GI50 (MDA-MB-231 breast) was 0.0233 µM, the TGI (MDA-MB-231 breast) was 0.617 µM and the GI50 (BT-549 breast) was under 0.01 µM. For the same compound, the TGI (BT-549 breast) was under 0.01 µM, the GI50 (MOLT-4 leukemia) was under 0.01 µM and the TGI (MOLT-4 leukemia) was under 0.01 µM. It also gave a GI50 (SR leukemia) of under 0.01 µM, a TGI (SR leukemia) of under 0.01 µM and a GI50 (U251 glioblastoma) of under 0.01 µM. It also gave a TGI (U251 glioblastoma) of under 0.01 µM, a GI50 (HOP-62 NSCLC) of under 0.01 µM and a TGI (HOP-62 NSCLC) of under 0.01 µM. For the same compound, the GI50 (SW-620 colon) was under 0.01 µM, the TGI (SW-620 colon) was 0.108 µM and the GI50 (UO-31 renal) was under 0.01 µM. The TGI (UO-31 renal) was under 0.01 µM, the GI50 (MDA-MB-468 breast) was under 0.01 µM and the TGI (MDA-MB-468 breast) was under 0.01 µM. The GI50 (A498 renal) was under 0.01 µM, the TGI (A498 renal) was 0.0142 µM and the GI50 (NCI-H460 NSCLC) was under 0.01 µM. For the same compound, the TGI (NCI-H460 NSCLC) was 0.0167 µM, the GI50 (HT29 colon) was under 0.01 µM and the TGI (HT29 colon) was 0.0107 µM. For the same compound, the GI50 ([…]-0 renal) was under 0.01 µM, the TGI (786-0 renal) was under 0.01 µM and the GI50 (SK-OV-3 ovarian) was under 0.01 µM. For the same compound, the TGI (SK-OV-3 ovarian) was under 0.01 µM, the GI50 (HL-60(TB) leukemia) was under 0.01 µM and the TGI (HL-60(TB) leukemia) was under 0.01 µM. It also gave a GI50 (SK-MEL-5 melanoma) of under 0.01 µM, a TGI (SK-MEL-5 melanoma) of under 0.01 µM and a GI50 (SNB-75 CNS) of under 0.01 µM. For the same compound, the TGI (SNB-75 CNS) was under 0.01 µM, the GI50 (CAKI-1 renal) was under 0.01 µM and the TGI (CAKI-1 renal) was 0.0117 µM. For the same compound, the GI50 (A549 NSCLC) was under 0.01 µM, the TGI (A549 NSCLC) was 0.0431 µM and the GI50 (HCT-116 colon) was under 0.01 µM. It also gave a TGI (HCT-116 colon) of 0.0221 µM, a GI50 (MALME-3M melanoma) of under 0.01 µM and a TGI (MALME-3M melanoma) of 0.084 µM. For the same compound, the GI50 (HCT-15 colon) was under 0.01 µM, the TGI (HCT-15 colon) was 0.12 µM and the GI50 (KM12 colon) was under 0.01 µM. The TGI (KM12 colon) was under 0.01 µM, the GI50 (NCI-H23 lung) was under 0.01 µM and the TGI (NCI-H23 lung) was under 0.01 µM.

— PubChem BioAssay (NCI)
